Reference: patent US20030143191A1, “Chemokine beta-1 fusion proteins” (priority 2001, published 2003)

Columns and labels:
HIV = conditions: cited from earlier work
NF-KB = test: NF-KB/SV40/SEAP reporter assay in Jurkat T-cells; assay type: cell-based; conditions: NF-KB/SV40/SEAP/Neo Jurkat T-cells; 0.1, 1, 10 ng; positive control
Text: NF-KB (Nuclear Factor KB) is a transcription factor activated by a wide variety of agents including the inflammatory cytokines IL-1 and TNF, CD30 and CD40, lymphotoxin-alpha and lymphotoxin-beta, by exposure to LPS or thrombin, and by expression of certain viral gene products. As a transcription factor, NF-KB regulates the expression of genes involved in immune cell activation, control of apoptosis (NF-KB appears to shield cells from apoptosis), B and T-cell development, anti-viral and antimicrobial responses, and multiple stress responses.
Due to its central role and ability to respond to a range of stimuli, reporter constructs utilizing the NF-KB promoter element are used to screen the fusion protein. Activators or inhibitors of NF-KB would be useful in treating, preventing, and/or diagnosing diseases. For example, inhibitors of NF-KB could be used to treat those diseases related to the acute or chronic activation of NF-KB, such as rheumatoid arthritis.
To construct a vector containing the NF-KB promoter element, a PCR based strategy is employed. The upstream primer contains four tandem copies of the NF-KB binding site ([…]) (SEQ ID NO: 48), 18 bp of sequence complementary to the 5′ end of the SV40 early promoter sequence, and is flanked with an XhoI site: […]

CC[C@H]1C(=O)Nc2ccc(F)cc2N1C(=O)OC(C)C [GW-420867×]
activity relative to HBY097 (HIV): 25 fold

C[C@H](Sc1nc(N)cc(Cl)n1)c1cc2ccoc2cn1 [PNU-142721]
activity relative to its predecessor delavirdine (HIV): 20- to 50 fold

Nc1nc(=O)n([C@@H]2CS[C@H](CO)O2)cc1F [emtricitabine]
activity in vitro relative to lamivudine (3TC) (HIV; in vitro): 3- to 10 fold

TNF alpha
activation (SEAP reporter activity) (NF-KB): 5-10 fold
